Measured values reported in paper PMC5329948, “Caspase vinyl sulfone small molecule inhibitors prevent axonal degeneration in human neurons and reverse cognitive impairment in Caspase-6-overexpressing mice” (Molecular Neurodegeneration, 2017).

Target: T1, Casp6 in Casp6-transfected HCT116 cells (Homo sapiens, UniProt P55212)
T1 construct: The mammalian constructs encoding human Casp6p20p10 in the pCep4β vector; expressed in transfected cells; host or cells: HCT116 human colon carcinoma cells
T1 sequence (P55212 24-179): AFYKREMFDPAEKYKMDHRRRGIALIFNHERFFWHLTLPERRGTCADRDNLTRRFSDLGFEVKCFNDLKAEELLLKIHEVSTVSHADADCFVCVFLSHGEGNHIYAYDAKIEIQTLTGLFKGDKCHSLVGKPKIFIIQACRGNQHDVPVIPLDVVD
T1 sequence (P55212 194-293): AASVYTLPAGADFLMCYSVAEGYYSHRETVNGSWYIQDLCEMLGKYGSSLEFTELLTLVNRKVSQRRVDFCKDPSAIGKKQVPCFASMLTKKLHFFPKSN
Assay: Casp6 VEIDase activity in extracts of Casp6p20p10-transfected HCT116 cells treated with inhibitor
Type: cell-based
Conditions: for Casp6 activity rise within 15 min of inhibitor removal / activity at 100 µM: 100 μM for 2 h, mean ± SEM; for Casp6 activity rise within 15 min of inhibitor removal: then fresh media 15 min; for decrease of Casp6 VEIDase activity within 15 min of treatment / decrease of Casp6 activity: 100 μM, Casp6-transfected HCT116; for decrease of Casp6 activity: 2 h; for activity at 100 µM: HCT-116, then fresh media 2 h, % of initial activity, read-out: Casp6 activity recovered 2 h after inhibitor removal; for IC50: cells treated for 2 h, read-out: IC50 on Casp6 activity in pCep4β-Casp6p20p10-transfected HCT116 cells
Experimental: HCT116: Human colon carcinoma (HCT116) cells (ATCC, Manassas, VA, USA) were cultured in McCoy’s 5A modified media (Thermo Fisher Scientific, Waltham, MA, USA) supplemented with 10% fetal bovine serum (Thermo Fisher Scientific, Waltham, MA, USA) and transfected with 1 μg of pCep4βCasp6p20p10 mixed with 8 μg of polyethyleneimine (Polysciences Inc., Warrington, PA, USA). Protein expression was allowed for 24 h before treating with vehicle (PBS), 100 μM NWL-117, or 100 μM NWL-154 for 2 h. For NWL inhibitor kinetic experiments, 100 μM of NWL-117 or NWL-154 was added at 120, 90, 60, 30, 15, or 0 min before harvest. […] For recovery time course experiments, after the initial treatment with 100 μM of NWL-117 or −154 for 2 h, the media was replaced with fresh media for 120, 90, 60, 30, 15, or 0 min before harvest. Primary Human CNS neurons: Cortical tissues were obtained from the Birth Defects Research Laboratory (BDRL, University of Washington, Seattle, USA) in accordance with NIH ethical guidelines approved by McGill University’s institutional review board and primary neurons cultured as previously described. Primary human neurons were seeded on poly-L-lysine-coated (5 μg/mL) 6-well plates or glass coverslips coated with poly-L-lysine and laminin (5 μg/mL) (Sigma-Aldrich, Oakville, ON, CA) at a density of 3x10^6 cells/mL. Primary human neurons were pre-treated with 0.1 μM epoxomicin (Enzo LifeSciences, Farmingdale, NY, USA) and 100 μM NWL-117, 100 μM NWL-154, or vehicle (PBS) for 2 h, and serum-deprived for 2 h in the presence of epoxomicin and vehicle (PBS), 100 μM NWL-117, or 100 μM NWL-154 before harvesting or measuring caspase activity with FLICA, as described below.
Recombinant or extracted cellular Casp6 activity: Casp6 activity was assessed by in vitro fluorogenic assays using Ac-Val-Glu-Ile-Asp-(7-Amino-4-trifluoromethylcouramin) (Ac-VEID-AFC: Enzo LifeSciences, NY, USA) as the Casp6 substrate. The activity was measured in Stennicke’s buffer (SB) (20 mM piperazine-N, N-bis (2-ethanesulfonic acid) (PIPES: BioShop Canada Inc, Burlington, Ontario, CA) pH 7.2, 30 mM NaCl, 1 mM ethylenediaminetetraacetic acid (EDTA), 0.1% 3-[(3-cholamidopropyl)-dimethylammonio]-2-hydroxy-1-propanesulfonic acid (CHAPS), 10% sucrose). The reaction mix consisted of either 20 nM RCasp6 or 20–30 μg cellular protein extracts, SB, 10 mM DTT, 10 μM VEID-AFC substrate and deionized water. The activity was measured in a black clear bottom 96-well plate (Costar, Corning, NY, USA) at 50 μL/well in triplicate at 37 °C in the Synergy H4 plate reader (BioTek) at excitation 380 nm and emission 505 nm every two minutes for 100 min. Fluorescence units were converted to the moles of AFC released based on a standard curve of 0–625 picomoles of free AFC. Cleavage rates were calculated from the linear phase of the assay. The activity is considered on a percentage scale where no inhibitor present is equated to 100% activity of the enzyme. Cellular Casp6 activity assay by FLICA: Active Casp6 was labeled within primary human neurons using the fluorescent inhibitor of Casp6 (FLICA) (FAM-VEID-fmk, ImmunoChemistry, Bloomington, MN, USA) following the manufacturer’s protocol. Briefly, FLICA reagent and Hoechst 33342 were added to a black clear bottom 96-well plate containing 100,000 of the treated-primary human neurons for 2 h at 37 °C in 5% CO2. The cells were rinsed twice with wash buffer and fresh media was added to the cells. The fluorescence of FAM-VEID-fmk was measured at 490 nm excitation and 520 nm emission with bandwidth reduced to 8 nm in the Synergy H4 plate reader (BioTek). The Hoechst signal was measured by excitation at 360 nm and emission at 485 nm.
The half-maximal inhibitory concentrations (IC50) for NWL inhibitors (Patent publication # WO/2009/140765, WO/2010/133000, and WO/2012/140500) was determined by incubating 0 to 20 μM NWL-117 and NWL-154 with 20 nM of active site-titrated Casp6 in SB at room temperature for 5 minutes. […]

## CCC(C)[C@H](NC(=O)[C@H](CCC(=O)O)NC(=O)[C@@H](NC(=O)OCc1ccccc1)C(C)C)C(=O)N[C@H](/C=C/S(C)(=O)=O)CC(=O)O (stereo partly shown) [NWL-117]
  Casp6 activity rise within 15 min of inhibitor removal: 43%
  decrease of Casp6 VEIDase activity within 15 min of treatment: 88%
  decrease of Casp6 activity: 80%
  activity at 100 µM: 85%
  IC50: 4.82 µM

## CCC(C)[C@H](NC(=O)[C@H](CCC(=O)O)NC(=O)[C@@H](NC(=O)OCc1ccccc1)C(C)C)C(=O)N[C@H](/C=C(\Cl)S(C)(=O)=O)CC(=O)O (stereo partly shown) [NWL-154]
  Casp6 activity rise within 15 min of inhibitor removal: 21%
  decrease of Casp6 VEIDase activity within 15 min of treatment: 95%
  decrease of Casp6 activity: 96%
  activity at 100 µM: 30%
  IC50: 3.63 µM
